System: Cl^− channel
Assay: Whole-cell Cl^− current recording (patch-clamp) in rat cardiac myocytes
Format: cell-based
Conditions: rat left ventricle cardiac myocytes, currents measured at plateau level, 30 μM nifedipine in bath
Text: FIG. 4: Channels with 3 different current types were found. (A) A small-conductance inwardly rectifying channel (ClSIR). (B) A large-conductance inwardly rectifying channel (ClLIR). (C) An outwardly rectifying channel (ClOR). For each type of channel, a family of currents at different voltages (on the left side of the panels), current-voltage characteristics (on the top right side of the panels) and channel densities at different surface positions (on the bottom right side of the panels) are shown. The mean reversal potential was −31.2±2.4 mV (n=5) for (A)−31.8±3.4 mV (n=5) for (B) and −33.5±3.0 mV (n=4) for (C). (D) Calculated whole-cell current extrapolated from single-channel currents. (E) Current-voltage characteristics of experimental whole-cell currents obtained from 22 cells (black circles). […] Currents were measured at plateau level.
Left ventricle cells from the rat myocardium were isolated as previously described (Harding et al, J. Mol. Cell Cardiol. 20:635–647, 1988). Cells were allowed to attach to polystyrene cell culture dishes filled with bath solutions.
the bath solution contained (in mM) K-glutamate 120, KCl 25, MgCl2 2, CaCl2 1, EGTA 2, glucose 10 and HEPES 10, adjusted to pH 7.4 with CsOH. The pipette backfill solution contained N-methyl-D-glucamine-Cl (NMDG-Cl) 108, HEPES 5, glucose 5.5 and EGTA 1, adjusted to pH 7.4 with TEA-OH. […]

| Structure (SMILES) | Block of experimental whole-cell Cl^− currents (300 μM, n=12) | Block of experimental whole-cell Cl^− currents (1 mM, n=5) |
| --- | --- | --- |
| CC(=O)Nc1ccc(C=Cc2ccc(N=C=S)cc2S(=O)(=O)O)c(S(=O)(=O)O)c1 [SITS, stilbene disulfonate] | partially blocked |  |
| [Cd+2] [Cd^2+] |  | almost completely blocked |
